The values below come from publication PMC6900016, “Synthesis of Indomorphan Pseudo‐Natural Product Inhibitors of Glucose Transporters GLUT‐1 and ‐3” (Angewandte Chemie (International Ed. in English), 2019).

What all share (experiment): cells
One test deals with 786O. On the set-up: Cell growth inhibition, sulforhodamine B total protein staining. The note with it: Homo sapiens, 786-0; 72 h growth; read-out: Cell growth inhibition IC50/µM. Put shortly:
(§1)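 72 h exposure of a 94-cell-line panel to Glupin; growth measured by sulforhodamine B total-protein staining after TCA fixation (10% adherent, 50% suspension/semi-adherent, 1 h at 4 °C). IC50 derived from growth inhibition.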

The next test has as its system A204. Further details: Cell growth inhibition, sulforhodamine B total protein staining. To be noted: Homo sapiens, A204; 72 h growth; read-out: Cell growth inhibition IC50/µM. The method in brief: as §1
The next test deals with A673. Further details: Cell growth inhibition, sulforhodamine B total protein staining. To be noted: Homo sapiens, A673; 72 h growth; read-out: Cell growth inhibition IC50/µM. Put shortly:
as §1

A further test relates to BT20. Further details: Cell growth inhibition, sulforhodamine B total protein staining. The note with it: Homo sapiens, BT-20; 72 h growth; read-out: Cell growth inhibition IC50/µM. Put shortly:
as §1

The subject of a further test is CACO2. On the set-up: Cell growth inhibition, sulforhodamine B total protein staining. The note with it: Homo sapiens, Caco-2; 72 h growth; read-out: Cell growth inhibition IC50/µM. Put shortly: as §1
Another test deals with DU145. On the set-up: Cell growth inhibition, sulforhodamine B total protein staining. To be noted: Homo sapiens, DU-145; 72 h growth; read-out: Cell growth inhibition IC50/µM. The method in brief:
as §1

The subject of a further test is EFO21. On the set-up: Cell growth inhibition, sulforhodamine B total protein staining. The note with it: Homo sapiens, EFO-21; 72 h growth; read-out: Cell growth inhibition IC50/µM. The method in brief:
as §1

The subject of a further test is EJ28. Further details: Cell growth inhibition, sulforhodamine B total protein staining. To be noted: Homo sapiens, EJ-28; 72 h growth; read-out: Cell growth inhibition IC50/µM. The method in brief: as §1
The next test relates to J82. On the set-up: Cell growth inhibition, sulforhodamine B total protein staining. The note with it: Homo sapiens, J82; 72 h growth; read-out: Cell growth inhibition IC50/µM. The method in brief:
as §1

In another test the test system is JAR. On the set-up: Cell growth inhibition, sulforhodamine B total protein staining. To be noted: 72 h growth; read-out: Cell growth inhibition IC50/µM. The method in brief:
as §1

The next test has as its system KASUMI1. Further details: Cell growth inhibition, sulforhodamine B total protein staining. The note with it: Homo sapiens, Kasumi 1; 72 h growth; read-out: Cell growth inhibition IC50/µM. Put shortly:
as §1

Another test relates to MIAPACA2. On the set-up: Cell growth inhibition, sulforhodamine B total protein staining. The note with it: Homo sapiens, MIA PaCa-2; 72 h growth; read-out: Cell growth inhibition IC50/µM. Put shortly: as §1
Another test has as its system SNB75. On the set-up: Cell growth inhibition, sulforhodamine B total protein staining. The note with it: Homo sapiens, SNB-75; 72 h growth; read-out: Cell growth inhibition IC50/µM. The method in brief:
as §1

The subject of the next test is CHO. Further details: 2-deoxyglucose uptake inhibition, resazurin/diaphorase, mock-transfected CHO cells. To be noted: Cricetulus griseus, 0.5 h, empty vector. As to the method:
Resazurin-based 2DG uptake assay (low throughput) The 2DG uptake assay was performed by the Yamamoto et al. procedure.[6] 40000 cells/well were seeded in black CellBIND 96-well plates with clear bottom (Corning) and allowed to attach overnight. Cells were washed three times with KRB buffer (20 mM Hepes, 5 mM KH2PO4, 1 mM MgCl2, 1 mM CaCl2, 136 mM NaCl, 4.7 mM KCl, pH 7.4) containing 0.1% BSA and then incubated with the compounds or vehicle control and 1 mM 2DG for 30 min as described earlier. After washing three times with KRB buffer, the plates were sealed with adhesive aluminum foil and cells were lysed with 60 µL 1% CHAPS in 0.06 M HCl. Subsequently, plates were heated using microplate heater for 15 min at 65°C. After cooling down to room temperature, 20 µL 0.5 M Tris were added to neutralize the acid, before 80 µL of detection enzyme mixture were added. The detection enzyme solution contained 25 µM resazurin sodium salt (Acros), 6 U/mL glucose-6-phosphate dehydrogenase (G8404; Sigma Aldrich), 0.2 U/mL diaphorase from Chlostridium kluyveri (D5540; Sigma Aldrich) and 0.1mM NADP+ (Applichem) in 0.125 mM Tris, pH 8.4 with 0.1% BSA. After incubation for 2 h at room temperature, fluorescence intensity was measured at ex/em 530/590 nm using a Tecan M200 plate reader. Data were normalized to the respective DMSO Transient overexpression of GLUT-1-4 in CHO cells and 2DG assay[7] […]

In the case of `CCOC(=O)Cn1c2c(c3ccccc31)C[C@@H]1C[C@H]2C(OC)CN1C(=O)c1cccnc1SC` (single isomer, unassigned; (+)) [(+)-5a, Glupin], the IC50 is 0.274 µM with 786O; 0.562 µM in the test on A204; 3.64 µM in the test with A673; above 30 µM in the test on BT20; 3.51 µM with CACO2; 0.317 µM with DU145. For the same compound, the IC50 was above 30 µM in the test on EFO21; 1.39 µM in the test on EJ28; 7.25 µM with J82; 0.886 µM in the test with JAR; above 30 µM in the test on KASUMI1; 0.061 µM in the test with MIAPACA2. Further, the IC50 in the test on SNB75 turned out to be 9.13 µM; in the test with CHO (pCMV-SPORT6, 2DG uptake) it was 19.1 ± 2.9 nM; with CHO (pTCN, 2DG uptake), 19.2 ± 2.1 nM.
